One experiment deals with T1, human α7 NNR (Homo sapiens, UniProt P36544).
T1 construct: expressed in transfected cells; host or cells: Xenopus laevis oocytes (cRNA injection)
Briefly: Two-electrode voltage-clamp in Xenopus laevis oocytes, potentiation of ACh-evoked α7 currents. The format is cell-based. Conditions: for Voltage-Clamp in Xenopus laevis Oocytes % max (degree of normalized potentiation): 0.1 mM ACh, normalized to reference PAM at 10 μM = 100%, ACh alone = 0%; for EC50: potentiation of 0.1 mM ACh-evoked α7 currents. The procedure: X. laevis oocytes were prepared for electrophysiological experiments as described in the literature (see for example. Briggs, C. A. el al, Neuropharmacology. 1995. 34: 583-590; Briggs, C. A. et al., Neuropharmacology, 1998, 37: 1095-1102, which are incorporated herein by reference). In brief, three to four lobes from ovaries of female adult X. laevis frogs were removed and defolliculated after treatment with collagenase type 1A (2 mg/mL; Sigma) prepared in low-Ca^2+ Barth's solution (90 mM NaCl, 1.0 mM KCl, 0.66 mM NaNO3, 2.4 mM NaHCO3, 10 mM HEPES, 2.5 mM sodium pyruvate, 0.82 mM MgCl2, and 0.5% (v/v) penicillin-streptomycin solution, pH=7.55, Sigma) for about 1.5 hours to about 2 hours at about 18° C. under constant agitation to obtain isolated oocytes.
The isolated oocytes were injected with about 4 ng to about 6 ng of human α7 NNR cRNA, kept at about 18° C. in a humidified incubator in modified Barth's solution (90 mM NaCl, 1.0 mM KCl, 0.66 mM NaNO3, 2.4 mM NaHCO3, 10 mM HEPES, 2.5 mM sodium pyruvate, 0.74 mM CaCl2, 0.82 mM MgCl2, 0.5% (v/v) penicillin-streptomycin solution, pH 7.55) and used about 2 to 7 days after injection. Responses were measured by two-electrode voltage clamp using a Parallel Oocyte Electrophysiology Test Station (Abbott, Abbott Park, Ill.) (see for example, Trumbull, J. D., et al., Receptors Channels, 2003, 9: 19-28, which is incorporated herein by reference). During recordings, the oocytes were bathed in Ba^2+-OR2 solution (90 mM NaCl, 2.5 mM KCl, 2.5 mM BaCl2, 1.0 mM MgCl2, 5.0 mM HEPES, and 0.0005 mM atropine, pH 7.4) to prevent activation of Ca^2+-dependent currents and held at −60 mV at room temperature (about 20° C.). Test compounds were pre-applied alone for […] and subsequently in the presence of 0.1 mM acetylcholine (ACh) as the agonist. The data were expressed as percentage potentiation of the acetylcholine-evoked current normalized to the response of reference PAM (at 10 μM, N′-[(2Z)-3-(2,2-difluoro-1,3-benzodioxol-5-yl)-5-methyl-1,3-thiazol-2(3 H)-ylidene]-N,N-dimethylurea) taken as 100% and the response to submaximum ACh without any PAM as 0%.
A general note: In two-electrode clamp one electrode senses voltage and the other passes current.

The next experiment addresses T2, σ2 receptors (Rattus norvegicus, UniProt Q5U3Y7).
T2 construct: The origin of the (σ1 and σ2 receptors were Jurkat cells and rat cerebral cortex, respectively); from tissue; host or cells: rat cerebral cortex
T2 sequence (Q5U3Y7 1-176): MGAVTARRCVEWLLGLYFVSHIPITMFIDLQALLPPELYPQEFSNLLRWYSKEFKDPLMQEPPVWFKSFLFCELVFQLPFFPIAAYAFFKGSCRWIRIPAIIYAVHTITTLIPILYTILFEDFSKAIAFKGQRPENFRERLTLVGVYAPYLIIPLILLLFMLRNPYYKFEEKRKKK
Briefly: Sigma receptor binding assay, σ2 ([3H]1,3-di(2-tolyl)guanidine displacement). As to conditions: test compound 10 μM; rat cerebral cortex. How it is done: (§1) Sigma receptors are binding sites that interact with several psychoactive agents. Inhibition of specific binding of known ligands to sigma receptors (σ1 and σ2) was used to determine the selectivity of test compounds. The assays were performed as described previously in the literature (non-selective σ: Shirayama, Y., et al. Eur. J. Pharmacol. (1993), 237: 117-126. σ1: Ganapathy, M. E., et al. J. Pharmacol. Exp. Ther. (1999) 289: 251-260. σ2: Bowen, M. D., et al. Mol. Neuropharmacol. (1993) 3: 117-126.). The origin of the non-selective a receptors was rat cerebral cortex. The origin of the (σ1 and σ2 receptors were Jurkat cells and rat cerebral cortex, respectively.
(§2) Affinity for the receptors was determined by competitive displacement of specific ligands (8 nM of [^3H] 1,3-di(2-tolyl)guanidine for non-selective σ, 8 nM of [^3H](+)pentazocine for σ1 and 5 nM of [^3H]1,3-di(2-tolyl)guanidine for σ2) by test compounds. Nonspecific binding was determined by addition of an excess of an unlabelled binder (10 μM haloperidol).
(§3) The results are expressed as a percent inhibition of control specific binding (100−((measured specific binding/control specific binding)×100)) obtained in the presence of test compound (10 μM) as shown in Table 1. In addition, Table 1 includes data for the selected compounds from the voltage-clamp in Xenopus laevis oocytes assay.

The next experiment deals with T3, σ1 receptors (Homo sapiens, UniProt Q99720).
T3 construct: The origin of the (σ1 and σ2 receptors were Jurkat cells and rat cerebral cortex, respectively); endogenous in cells; host or cells: Jurkat cells
Nature of the experiment: Sigma receptor binding assay, σ1 ([3H](+)pentazocine displacement, Jurkat cells). Conditions: test compound 10 μM. How it is done: as §1, §2, §3

For experiment [1], the system named is non-selective σ receptors. Nature of the experiment: Sigma receptor binding assay, non-selective σ ([3H]1,3-di(2-tolyl)guanidine displacement). As to conditions: test compound 10 μM; rat cerebral cortex. How it is done:
as §1, §2, §3

The test system of another experiment is sensory gating T:C ratio. Nature of the experiment: Sensory gating deficit in DBA/2 mice (N40 gating) assay. In kind it is in vivo. As to conditions: dose 0.01 μmol/kg. An excerpt:
Sensory gating is a basic central nervous system function that facilitates attending to important stimuli, and ignoring irrelevant background noise. A practical example of sensory gating is the ability to follow a conversation at a loud party. An experimental measure of sensory gating is the suppression of brainwave (evoked potential) responding to repetitive auditory stimuli. Schizophrenic patients can not suppress responding to repetitive stimuli, and are therefore considered to have sensory gating deficiencies.
DBA/2 mice (20-25 g, 8-10 week, Harlan) were used for gating experiments and handled in accordance with approved Association for Assessment and Accreditation of Laboratory Animal Care procedures. Mice were given food and water ad libitum and maintained on a 12-hour light/dark cycle (lights on at 0600 hours).
The surgical techniques employed were similar to those previously described (Connolly P M, et al. (2003) Brain Res 992(1):85-95). […]
To obtain EEG and evoked potentials (EPs), unanesthetized mice were recorded in acoustically isolated chambers (Med Associates). EEG biosignals were recorded from freely moving mice using flexible cable tethers and electrical swivels (Plastics One) and amplified with differential AC amplifiers (Grass Instrument Division, Astro-Med, West Warwick, R.I. USA). […]

Experiment [2] has as its system formalin-induced nociceptive behavior. Nature of the experiment: Formalin-induced persistent nociceptive behavior assay. In kind it is in vivo. As to conditions: mice; 10 mg/kg subcutaneously 10 minutes prior to formalin; phase 2, 20-45 minutes post formalin. The procedure: Nociception was assessed using the formalin test. The mice were placed in open plexiglass observation chambers for 30 minutes to allow them to acclimate to their surroundings: then they were removed for formalin administration. Mice were gently restrained while the dorsum of the hind paw was injected with 20 μL of 2.5% formalin into the plantar surface of the right hind paw with a 30-gauge needle. The animals were returned to the chambers and nociceptive behavior was observed immediately after formalin injection. Mirrors were placed in each chamber to enable unhindered observation. Nociceptive behavior was quantified as the time licking the injected paw for continuous 5 minutes (phase 1) and 20-45 minutes (phase 2), following formalin injection. Formalin-induced flinching/licking behavior was biphasic. The initial acute phase (phase 1.0-5 minutes) was followed by a relatively short quiescent period, which was then followed by a prolonged tonic response (phase 2, 20-45 minutes).

The next experiment has as its target α7 NNRs (Homo sapiens, UniProt P36544). As to conditions: IMR-32 cells.

We go through 7 compounds from patent US7786171B2, “Amide derivatives as positive allosteric modulators and methods of use thereof” (Abbott Laboratories, priority 2008, dated 2010).

Structures are written as SMILES.

T1 sequence (P36544 23-502): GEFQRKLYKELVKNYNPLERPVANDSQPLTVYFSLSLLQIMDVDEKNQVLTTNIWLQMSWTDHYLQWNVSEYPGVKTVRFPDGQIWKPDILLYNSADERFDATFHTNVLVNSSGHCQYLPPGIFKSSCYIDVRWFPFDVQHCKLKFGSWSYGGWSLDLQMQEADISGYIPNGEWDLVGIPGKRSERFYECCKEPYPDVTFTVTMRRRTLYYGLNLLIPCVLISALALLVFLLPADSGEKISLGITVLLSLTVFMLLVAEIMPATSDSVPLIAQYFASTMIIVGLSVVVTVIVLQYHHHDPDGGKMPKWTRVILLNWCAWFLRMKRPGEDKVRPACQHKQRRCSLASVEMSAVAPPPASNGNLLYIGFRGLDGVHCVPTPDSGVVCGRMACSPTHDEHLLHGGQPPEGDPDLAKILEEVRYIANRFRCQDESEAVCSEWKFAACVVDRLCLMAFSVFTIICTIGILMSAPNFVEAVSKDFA
T3 sequence (Q99720 whole entry): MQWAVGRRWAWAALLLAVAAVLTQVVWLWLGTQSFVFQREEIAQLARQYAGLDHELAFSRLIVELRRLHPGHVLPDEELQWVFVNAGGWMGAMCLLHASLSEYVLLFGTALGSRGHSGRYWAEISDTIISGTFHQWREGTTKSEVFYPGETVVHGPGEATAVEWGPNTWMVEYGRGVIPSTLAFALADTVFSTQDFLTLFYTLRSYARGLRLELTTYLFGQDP
α7 NNRs, sequence (P36544 23-502): as the sequence (P36544 23-502) above
Procedure for α7 NNRs: Although cell types such as IMR-32 neuroblastoma and neurons are known to contain several nicotinic receptor subunits, α7 selective agonists in the present assay selectively stimulate calcium responses only in the presence of PAMs. Any suitable selective α7 agonist can be used.
IMR-32 neuroblastoma cells (ATCC) were grown to confluency in 162 cm^2 tissue culture flasks in minimum essential media supplemented with 10% fetal bovine serum and 1 mM sodium pyruvate, 0.1 mM non-essential amino acids and 1% antibiotic-antimycotic. […]
Calcium flux was measured using a calcium-3 assay kit (Molecular Devices, Sunnyvale, Calif.) or Fluo-4 (Invitrogen, Carlsbad, Calif.). […] Fluorescence measurements were read simultaneously from all the wells by a Fluorometric Imaging Plate Reader (FLIPR) at an excitation wavelength of 480 nm and an emission wavelength of 520 nm. Baseline fluorescence was measured for the first 10 seconds at which 50 μL of 3× concentrations of modulator/test compounds were added to the cell plate and incubated for three to five minutes. The fluorescence intensity was captured every second for the first 1 minute followed by every 2-5 seconds for an additional two to four minutes. This procedure was followed by 50 μL of 4× concentration of agonist and readings were taken for a period of three to five minutes as described above. […]

Take `O=C(NCc1cccc(-n2cccn2)c1)c1ccc(SC(F)(F)F)cc1` [Example 12, N-[3-(1H-pyrazol-1-yl)benzyl]-4-[(trifluoromethyl)thio]benzamide]: at human α7 NNR, the “Voltage-Clamp in Xenopus laevis Oocytes % max (degree of normalized potentiation)” value came to 61% and the concentration for a half-maximal effect (EC50) (usually the concentration at which the effect is half-maximal) was 3.7 µM.

For `CN(C)c1ccc(CNC(=O)c2ccc(SC(F)(F)F)cc2)cc1` [Example 17, N-[4-(dimethylamino)benzyl]-4-[(trifluoromethyl)thio]benzamide], the inhibition – broadly, the drop in the measured response relative to a control, in per cent – at 10 µM at σ2 receptors was -1%. On σ1 receptors, the inhibition at 10 µM is 8%. Moreover, on human α7 NNR, the “Voltage-Clamp in Xenopus laevis Oocytes % max (degree of normalized potentiation)” value was 94% and the concentration for a half-maximal effect (EC50) came to 0.18 µM.

Regarding `Nc1ccc(CNC(=O)c2ccc(SC(F)(F)F)cc2)cc1` [Example 19, N-(4-aminobenzyl)-4-[(trifluoromethyl)thio]benzamide], at human α7 NNR, the “Voltage-Clamp in Xenopus laevis Oocytes % max (degree of normalized potentiation)” value is recorded as 120% and the concentration for a half-maximal effect (EC50) was found to be 5.4 µM. The “% Inhibition of Binding at 10 μM σ” value in experiment [1] was 6%.

In the case of `CNc1ccc(CNC(=O)c2ccc(SC(F)(F)F)cc2)cc1` [Example 20, N-[4-(methylamino)benzyl]-4-[(trifluoromethyl)thio]benzamide], the “reduction of T:C (test:conditioned) ratios compared to vehicle” value with sensory gating T:C ratio was determined as 23.7±8.9%. Further, at human α7 NNR, the “Voltage-Clamp in Xenopus laevis Oocytes % max (degree of normalized potentiation)” value came out at 99% and the EC50 amounted to 0.097 µM. Besides, the “% Inhibition of Binding at 10 μM σ” value in experiment [1] was determined as 39%. Further, in experiment [2], the “reduction in licking duration (nociceptive behavior), phase 2” value was determined as 68%.

Turning to `CNc1ccc(CNC(=O)c2ccc(SC(F)F)cc2)cc1` [Example 22, 4-[(difluoromethyl)thio]-N-[4-(methylamino)benzyl]benzamide], at σ2 receptors, the inhibition at 10 µM was -4%. In addition, the inhibition at 10 µM at σ1 receptors amounted to 21%. Moreover, on human α7 NNR, the “Voltage-Clamp in Xenopus laevis Oocytes % max (degree of normalized potentiation)” value is on record as 115% and the concentration giving a half-maximal response (EC50) amounted to 1.2 µM.

Turning to `O=C(Cc1ccc(NCC2CC2)cc1)Nc1ccc(SC(F)F)cc1` [Example 43, 2-{4-[(cyclopropylmethyl)amino]phenyl}-N-{4-[(difluoromethyl)thio]phenyl}acetamide], on σ2 receptors, the inhibition at 10 µM turned out to be 34%. Besides, the inhibition at 10 µM at σ1 receptors stood at 84%. For the same compound, on human α7 NNR, the “Voltage-Clamp in Xenopus laevis Oocytes % max (degree of normalized potentiation)” value stood at 2% and the concentration for a half-maximal effect (EC50) is > 10 µM.

Take `CCN1C[C@]2(COC(=O)c3ccccc3N3C(=O)C[C@H](C)C3=O)CC[C@H](OC)[C@@]34[C@@H]5C[C@H]6[C@H](OC)[C@@H]5[C@](O)(C[C@@H]6OC)[C@@](O)([C@@H](OC)[C@H]23)[C@@H]14` [methyllycaconitine]: the “calcium response to agonist in the presence of an allosteric modulator” value at α7 NNRs is on record as “abolished the response”.
